According to patent US9951051B2, “Process for producing alkynylketone derivative” (Shionogi & Co., Ltd., priority 2014, dated 2018):
Counter-ions that a name gives are not always drawn.

Assay: Solubility test of methanesulfonate of Compound represented by Formula (II″)
Format: physicochemical
Conditions: HPLC method A; for concentration in supernatant solution (solubility): 20 to 25 °C, slurry stirred over two hours; for concentration of crystalline form dissolved into the solution: Conditions in Example 2 (DMSO/NMM/THF/MeCN), 0 °C
Procedure: Crystalline form of methanesulfonate of Compound represented by Formula (II″) and crystalline form of free form of Compound represented by Formula (II″) were suspended in tetrahydrofuran or acetonitrile, respectively. The slurries were stirred at 20° C. to 25° C. for over two hours, and then the concentration in each supernatant solution was measured (HPLC method A). The HPLC results of the concentration in each supernatant solution are indicated as Table 12.
Moreover, the concentration of each crystalline form being dissolved into the solution at 0° C. in Step 1 (Step to obtain the crystalline form of methanesulfonate) and Step 2 (Step to obtain the crystalline form of free form) in Example 2 was measured by HPLC method A and compared (Table 12).

CC#CC(=O)c1ccc2ncnc(Nc3ccc(OCc4cccc(F)c4)c(Cl)c3)c2c1 [MsOH salt of Formula (II″)]
concentration in supernatant solution (solubility) (Acetonitrile): 0.05%
concentration of crystalline form dissolved into the solution: 3.1%
concentration of crystalline form dissolved into the solution (listed as methanesulfonate of Compound represented by (II″)): 3.1%
concentration in supernatant solution (solubility) (Tetrahydrofuran): 0.05%

CC#CC(=O)c1ccc2ncnc(Nc3ccc(OCc4cccc(F)c4)c(Cl)c3)c2c1 [Free form of Formula (II″), 4-(3-chloro-4-(3-fluorobenzyloxy)phenylamino)-6-(1-oxo-2-butyn-1-yl)quinazoline]
concentration in supernatant solution (solubility) (Acetonitrile): 0.3%
concentration of crystalline form dissolved into the solution: 15.7%
concentration of crystalline form dissolved into the solution (listed as free form of Compound represented by (II″)): 15.7%
concentration in supernatant solution (solubility) (Tetrahydrofuran): 3.6%
